Data: US20140221283A1 (Indiana University Research and Technology Corporation, priority 2011, published 2014)
*1 amine or outer side, *2 acyl side, *3 side chain or, on linkers, in order; H or OH if unused. Where a SMILES comes first, the peptide text is derived from it. Side-chain parts run from the residue outwards. [ ]: non-standard residue; d: D form. The star is where a group is joined. γGlu = O=C(O)[C@H](CCC(=O)[*:2])N[*:1]; Palmitoyl = CCCCCCCCCCCCCCCC(=O)*; Aib = CC(C)(N)C(=O)O

Columns and labels:
human GIPR = target: T1, human GIPR (Homo sapiens, UniProt P48546); experiment: cAMP production in CHO-K1 cells stably expressing human GIPR, DiscoveRx Hithunter cAMP XS+ (Example 4); format: cell-based; details: procedure of Example 4, read-out: EC50 (nM) at GIP receptor
T1 construct: expressed in transfected cells; host or cells: CHO-K1
T1 sequence (P48546 22-466): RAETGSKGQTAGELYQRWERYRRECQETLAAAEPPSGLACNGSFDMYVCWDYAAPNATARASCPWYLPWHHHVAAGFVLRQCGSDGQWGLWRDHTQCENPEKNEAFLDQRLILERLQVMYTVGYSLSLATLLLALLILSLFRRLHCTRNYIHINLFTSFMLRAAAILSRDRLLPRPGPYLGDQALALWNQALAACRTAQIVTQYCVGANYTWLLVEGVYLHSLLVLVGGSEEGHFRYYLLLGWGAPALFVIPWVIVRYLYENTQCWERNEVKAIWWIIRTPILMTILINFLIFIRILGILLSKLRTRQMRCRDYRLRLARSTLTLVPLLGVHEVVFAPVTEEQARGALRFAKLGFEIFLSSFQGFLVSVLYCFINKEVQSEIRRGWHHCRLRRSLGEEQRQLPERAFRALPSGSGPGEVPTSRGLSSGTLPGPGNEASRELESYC
Experimental: (§1) The in vitro agonist potencies of the peptide of SEQ ID NO. 17 were determined using Chinese Hamster Ovary cells (CHO-K1) stably expressing human GLP-1R, GCGR or GIPR. The GLP-1R and GCGR stable cell line isogenic pools were generated by Invitrogen using their Jump-In™ targeted integration technology, whereas the stable CHO/GIPR lines were generated through classic cloning and transfection techniques (random integration) with limited dilution for selection of clones. The peptides were tested in vitro for their relative abilities to stimulate cAMP production in the various cell lines using the DiscoveRx Hithunter™ cAMP XS+ assay kit (cat#90-0075L) as per kit instructions.

[1] = body weight of diet-induced obese (DIO) mice dosed daily for nine days (Example 7); format: in vivo; details: Day 9
Experimental: (§2) Mice were administered a vehicle control or a dose of a peptide daily for nine days. The peptides tested in this study included a peptide of SEQ ID NO: 12, a peptide of SEQ ID NO: 17, a peptide of SEQ ID NO: 18, and a peptide of SEQ ID NO: 19. Doses of each peptide were varied—each of the peptides of SEQ ID NO: 12, 17, and 19 was administered at a dose of either 3 nmol/kg or 9 nmol/kg, while the peptide of SEQ ID NO: 18 was administered at a dose of 1 nmol/kg, 3 nmol/kg, or 9 nmol/kg. Data are expressed as mean±SEM.

human GCGR = target: T2, human GCGR (Homo sapiens, UniProt P47871); experiment: cAMP production in CHO-K1 cells stably expressing human GCGR, DiscoveRx Hithunter cAMP XS+ (Example 4); format: cell-based; details: procedure of Example 4
T2 construct: host or cells: CHO-K1
T2 sequence (P47871 26-477): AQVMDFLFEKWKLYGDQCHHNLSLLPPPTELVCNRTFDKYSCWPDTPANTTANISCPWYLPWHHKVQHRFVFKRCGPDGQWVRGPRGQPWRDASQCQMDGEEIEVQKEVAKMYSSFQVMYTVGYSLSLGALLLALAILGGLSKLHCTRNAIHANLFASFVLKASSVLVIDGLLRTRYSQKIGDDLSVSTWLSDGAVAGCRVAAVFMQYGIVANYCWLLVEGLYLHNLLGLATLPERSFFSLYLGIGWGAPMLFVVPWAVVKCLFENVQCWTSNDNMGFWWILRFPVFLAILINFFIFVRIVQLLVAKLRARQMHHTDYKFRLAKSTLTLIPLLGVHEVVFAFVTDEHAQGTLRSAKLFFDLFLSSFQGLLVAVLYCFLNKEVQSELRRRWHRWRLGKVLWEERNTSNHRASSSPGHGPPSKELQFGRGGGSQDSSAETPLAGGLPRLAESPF
Experimental: as §1

[2] = body weight of obese rhesus monkeys dosed daily for 21 days (Example 8); format: in vivo
Experimental: (§3) The in vivo effects of a peptide of the invention were confirmed in obese rhesus monkeys by administering daily for 21 days a vehicle control, a commercially available product (Liraglutide), a peptide of SEQ ID NO: 20, or a peptide of SEQ ID NO: 17. […] Body weight and food intake were measured.

[3] = Meal Tolerance Test (MTT) in diabetic rhesus monkeys treated for 10 days (Example 9); format: in vivo; details: 1 μg/kg s.c. for 10 days
Experimental: (§4) The in vivo effects of a peptide of the invention were tested in diabetic rhesus monkeys (n=7) that were aged 16-26 years and having an average body weight of […]. Diabetic rhesus monkeys (n=7) that were aged 16-26 years with an average body weight of […] were administered a vehicle control, Liraglutide at a dose of 10 μg/kg s.c. or a peptide of SEQ ID NO: 17 at a dose of 1 μg/kg s.c. for 10 days. At the end of each treatment, fasting blood glucose (FBG) was measured first followed by a Meal Tolerance Test (MTT) to assess glucose tolerance. […] Data are expressed in FIG. 4 as mean±SEM. *P<0.05 versus vehicle.

[4] = food intake of obese rhesus monkeys dosed daily for 21 days (Example 8); format: in vivo; details: 3 μg/kg s.c. daily for 21 days
Experimental: as §3

[5] = ambient glucose levels of DIO mice dosed daily for nine days (Example 7); format: in vivo
Experimental: as §2
In addition to cumulative body weight change, ambient glucose levels of the DIO mice were measured.

[6] = fasting blood glucose (FBG) of diabetic rhesus monkeys treated for 10 days (Example 9); format: in vivo; details: 1 μg/kg s.c. for 10 days
Experimental: as §4

human GLP-1R = human GLP-1R (Homo sapiens, UniProt P43220); experiment: cAMP production in CHO-K1 cells stably expressing human GLP-1R, DiscoveRx Hithunter cAMP XS+ (Example 4); format: cell-based; design: host or cells: CHO-K1; details: CHO-K1 stably expressing human GLP-1R, procedure of Example 4
Sequence of human GLP-1R (P43220 24-463): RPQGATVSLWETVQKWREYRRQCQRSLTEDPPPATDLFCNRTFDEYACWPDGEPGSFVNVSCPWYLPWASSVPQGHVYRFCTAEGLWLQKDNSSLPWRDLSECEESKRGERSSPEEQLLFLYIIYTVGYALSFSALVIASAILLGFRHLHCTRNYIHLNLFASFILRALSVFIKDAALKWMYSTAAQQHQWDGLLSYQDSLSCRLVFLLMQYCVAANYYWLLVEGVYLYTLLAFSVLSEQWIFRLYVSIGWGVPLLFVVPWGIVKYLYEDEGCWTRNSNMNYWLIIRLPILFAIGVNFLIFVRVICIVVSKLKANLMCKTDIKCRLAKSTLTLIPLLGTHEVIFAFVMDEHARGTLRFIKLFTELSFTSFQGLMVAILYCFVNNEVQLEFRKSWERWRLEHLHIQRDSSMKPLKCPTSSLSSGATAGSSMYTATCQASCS
Experimental: as §1

In the case of `CCCCCCCCCCCCCCCC(=O)N[C@@H](CCC(=O)N[C@@H](CCC(=O)NCCCC[C@H](NC(=O)[C@H](CC(=O)O)NC(=O)[C@H](CO)NC(=O)[C@@H](NC(=O)[C@H](Cc1ccccc1)NC(=O)[C@@H](NC(=O)CNC(=O)[C@H](CCC(N)=O)NC(=O)C(C)(C)NC(=O)[C@@H](N)Cc1c[nH]cn1)[C@@H](C)O)[C@@H](C)O)C(=O)N[C@@H](CO)C(=O)N[C@@H](CCCCN)C(=O)N[C@@H](Cc1ccc(O)cc1)C(=O)N[C@@H](CC(C)C)C(=O)N[C@@H](CC(=O)O)C(=O)NC(C)(C)C(=O)N[C@@H](CCCNC(=N)N)C(=O)N[C@@H](C)C(=O)N[C@@H](C)C(=O)N[C@@H](CCC(N)=O)C(=O)N[C@@H](CC(=O)O)C(=O)N[C@@H](Cc1ccccc1)C(=O)N[C@H](C(=O)N[C@@H](CCC(N)=O)C(=O)N[C@@H](Cc1c[nH]c2ccccc12)C(=O)N[C@@H](CC(C)C)C(=O)N[C@@H](CCSC)C(=O)N[C@@H](CC(N)=O)C(=O)N[C@H](C(=O)N[C@@H](CCCCN)C(=O)N[C@@H](CCC(N)=O)C(=O)O)[C@@H](C)O)C(C)C)C(=O)O)C(=O)O` [SEQ ID NO: 17] (H-H[Aib]QGTFTSDK([γGlu-γGlu-Palmitoyl])SKYLD[Aib]RAAQDFVQWLMNTKQ-OH; N-terminus assumed), the EC50 (human GIPR) is reported as > 2000 nM, the body weight reduction ([1]; 3 nmol/kg daily) is reported as ~9.6% and the body weight loss ([1]; 9 nmol/kg daily) is reported as ~35.5%. The EC50 (human GCGR) was 0.11 nM, the “weight loss vs. baseline and vehicle” value ([2]; 3 μg/kg s.c. daily for 21 days) was -1.2 kg and the “body weight following a one week wash-out” value ([2]; Day 28, after 21 days at 3 μg/kg s.c.) was “regained much of the weight that was lost”. For the same compound, the “glucose tolerance during MTT as compared to vehicle” value [3] was “improved glucose tolerance”, the “food intake, % change vs. baseline” value [4] was −25.7% and the “reduction in glucose levels compared to vehicle control mice” value ([5]; 3 nmol/kg daily, Day 7) was ~28%. For the same compound, the “decrease in glucose levels compared to vehicle control mice” value (“decrease in glucose levels” for short) ([5]; 3 nmol/kg daily, Day 9) was ~19%, the “decrease in glucose levels” value ([5]; 9 nmol/kg daily, Day 4) was ~48% and the “decrease in glucose levels” value ([5]; 9 nmol/kg daily, Day 7) was ~48%. The “decrease in glucose levels” value ([5]; 9 nmol/kg daily, Day 9) was ~45%, the “FBG change vs. vehicle” value [6] was −25% and the fasting blood glucose (FBG) ([6]; mean±SEM) was 120 ± 20 mg/dL. It also gave an EC50 (human GLP-1R) of 0.075 nM.
